The test system of assay [1] is 13 MRSA strains, clinically isolated. Nature of the assay: Minimal inhibitory concentration (MIC>90) in MH II medium. In kind it is cell-based, methicillin-resistant Staphylococcus aureus. To be noted: for MIC: Staphylococcus aureus, MRSA. The procedure:
(§1) The MIC (minimal inhibitory concentration) against VRE and MRSA was measured to test antibiotic activity of Macrolactin A produced by Bacillus polyfermenticus KJS-2, which is the strain of the present invention, against the two strains. The strains used for the experiment were 11 VRE strains and 13 MRSA strains, which were clinically isolated. Each strain used for the experiment was cultured in MH II medium at 200 rpm for 6 hours at 37° C., the absorbance of the medium measured at OD600nm using a UV detector, and then 1 ml aliquot of the medium was spread over MH II agar medium and incubated for 16 hours at 37° C. The number of colonies formed on the agar medium after 16 hours of incubation was counted. Each strain used for experiment was cultured in MH II medium at 200 rpm for 6 hours at 37° C., and the absorbance of the medium was measured at OD600nm using a UV detector. The number of cells were calculated based on the ratio of the number of colonies to the absorbance of the medium, and measured by the above process. Each culture medium was diluted to the final cell concentration of 0.25*10^7 cfu/ml and Macrolactin A was dissolved in the solvent DMSO, while ampicillin, teycoplanin, vancomycin and methillin were dissolved in water. To measure the MIC of Macrolactin A or of the four antibiotics, the mixture of the materials listed in Table 5 and Macrolactin A or the mixture of the materials listed in Table 6 and each of the four antibiotics, respectively in a 500 μl eppendorff tub, was incubated at 200 rpm for 16 hours at 37° C., and then absorbance was measured by a UV/Visible Light detector at 600 nm using a Fluorescence Multi-Detection Reader.

The subject of assay [2] is 11 VRE strains, clinically isolated. The assay is described as above. In kind it is cell-based, vancomycin-resistant enterococci. The settings on record: for MIC: Enterococcus, VRE. The procedure:
as §1

Assay [3] has as its system vancomycin-resistant enterococci (VRE). The settings on record: cited from earlier work.
Assay [4] concerns methicillin-resistant Staphylococcus aureu (MRSA). The settings on record: cited from earlier work.
Assay [5] deals with Burkholderia cepacia. The settings on record: cited from earlier work.
Assay [6] deals with VRE5. As to the kind of experiment: Bioassay at a gradient of concentration on TSB agar medium. The settings on record: solution 5 mg/ml in H2O. In kind it is cell-based, vancomycin-resistant enterococci.

≈ marks a conversion by molar mass, not a printed value. Like-named read-outs stand apart in the source and are kept apart here.

As to `CC1(C)S[C@@H]2[C@H](NC(=O)[C@H](N)c3ccccc3)C(=O)N2[C@H]1C(=O)O` [Ampicillin], the MIC – broadly, the least concentration at which growth counts as inhibited – in assay [1] (Average of the 13 MRSA strains, read-out: average MIC>90) came to 212 µg/mL (≈ 605 µM); in assay [1] (MRSA1, read-out: MIC>90) it was 250 µg/mL (≈ 715 µM); in assay [1] (MRSA2, read-out: MIC>90) it was 250 µg/mL (≈ 715 µM); in assay [1] (MRSA3, read-out: MIC>90) it was 250 µg/mL (≈ 715 µM); in assay [1] (MRSA4, read-out: MIC>90), 250 µg/mL (≈ 715 µM); in assay [1] (MRSA5, read-out: MIC>90) it was 250 µg/mL (≈ 715 µM). Further, the minimal inhibitory concentration (MIC) in assay [1] (MRSA6, read-out: MIC>90) was determined as 250 µg/mL (≈ 715 µM); in assay [1] (MRSA7, read-out: MIC>90), 250 µg/mL (≈ 715 µM); in assay [1] (MRSA8*, read-out: MIC>90), 125 µg/mL (≈ 358 µM); in assay [1] (MRSA8, read-out: MIC>90) it was 125 µg/mL (≈ 358 µM); in assay [1] (MRSA9, read-out: MIC>90) it was 125 µg/mL (≈ 358 µM); in assay [1] (MRSA10, read-out: MIC>90) it was 250 µg/mL (≈ 715 µM). Also, the MIC in assay [1] (MRSA11*, read-out: MIC>90) amounted to 250 µg/mL (≈ 715 µM); in assay [1] (MRSA11, read-out: MIC>90), 125 µg/mL (≈ 358 µM); in assay [2] (Average of the 11 VRE strains, read-out: average MIC>90) it was 273 µg/mL (≈ 781 µM); in assay [2] (VRE1, read-out: MIC>90), 250 µg/mL (≈ 715 µM); in assay [2] (VRE2, read-out: MIC>90), 250 µg/mL (≈ 715 µM); in assay [2] (VRE3, read-out: MIC>90), 250 µg/mL (≈ 715 µM). Besides, the MIC was found to be 250 µg/mL (≈ 715 µM) in assay [2] (VRE4, read-out: MIC>90); 250 µg/mL (≈ 715 µM) in assay [2] (VRE5, read-out: MIC>90); 250 µg/mL (≈ 715 µM) in assay [2] (VRE6, read-out: MIC>90); 250 µg/mL (≈ 715 µM) in assay [2] (VRE7, read-out: MIC>90); 250 µg/mL (≈ 715 µM) in assay [2] (VRE9, read-out: MIC>90); 250 µg/mL (≈ 715 µM) in assay [2] (VRE10, read-out: MIC>90). The MIC in assay [2] (VRE914, read-out: MIC>90) was 250 µg/mL (≈ 715 µM); in assay [2] (VRE915, read-out: MIC>90), 500 µg/mL (≈ 1430 µM).
As to `CC1CCC/C=C/C=C/C(O)CC(O)C/C=C\C=C\C(OC(=O)CC(=O)O)C/C=C/C=C\C(=O)O1` (stereo not shown) [Malonyl-macrolactin A (MMA), Malonyl-macrolactin A], the “antibiotic activity against VRE” value in assay [3] is listed as “excellent antibiotic activity”. In assay [4], the “antibiotic activity against MRSA” value is on record as “excellent antibiotic activity”. In assay [5], the “antibiotic activity against Burkholderia cepacia” value is listed as “excellent antibiotic activity”.
On to `CN[C@H](CC(C)C)C(=O)N[C@H]1C(=O)N[C@@H](CC(N)=O)C(=O)N[C@H]2C(=O)N[C@H]3C(=O)N[C@H](C(=O)N[C@H](C(=O)O)c4cc(O)cc(O)c4-c4cc3ccc4O)[C@H](O)c3ccc(c(Cl)c3)Oc3cc2cc(c3O[C@@H]2O[C@H](CO)[C@@H](O)[C@H](O)[C@H]2O[C@H]2C[C@](C)(N)[C@H](O)[C@H](C)O2)Oc2ccc(cc2Cl)[C@H]1O` [Vancomycin], for which the “inhibition of VRE5 on TSB agar medium” value in assay [6] is “not inhibited”. For the same molecule, the MIC in assay [1] (read-out: MIC>90, MRSA1) is 250 µg/mL (≈ 173 µM); in assay [1] (read-out: MIC>90, MRSA2) it was 125 µg/mL (≈ 86.3 µM); in assay [1] (read-out: MIC>90, MRSA3), 125 µg/mL (≈ 86.3 µM); in assay [1] (read-out: MIC>90, MRSA4), 125 µg/mL (≈ 86.3 µM); in assay [1] (read-out: MIC>90, MRSA5), 125 µg/mL (≈ 86.3 µM); in assay [1] (read-out: MIC>90, MRSA6), 250 µg/mL (≈ 173 µM). For the same molecule, the minimal inhibitory concentration (MIC) in assay [1] (read-out: MIC>90, MRSA7) turned out to be 250 µg/mL (≈ 173 µM); in assay [1] (read-out: MIC>90, MRSA8) it was 125 µg/mL (≈ 86.3 µM); in assay [1] (read-out: MIC>90, MRSA8*), 125 µg/mL (≈ 86.3 µM); in assay [1] (read-out: MIC>90, MRSA9) it was 250 µg/mL (≈ 173 µM); in assay [1] (read-out: MIC>90, MRSA10), 250 µg/mL (≈ 173 µM); in assay [1] (read-out: MIC>90, MRSA11), 250 µg/mL (≈ 173 µM). Also, the MIC in assay [1] (read-out: MIC>90, MRSA11*) is 31.2 µg/mL (≈ 21.6 µM); in assay [1] (read-out: average MIC>90, Average of the 13 MRSA strains) it was 175 µg/mL (≈ 121 µM); in assay [2] (read-out: MIC>90, VRE1) it was 500 µg/mL (≈ 345 µM); in assay [2] (read-out: MIC>90, VRE2) it was 500 µg/mL (≈ 345 µM); in assay [2] (read-out: MIC>90, VRE3), 125 µg/mL (≈ 86.3 µM); in assay [2] (read-out: MIC>90, VRE4), 250 µg/mL (≈ 173 µM). For the same molecule, the MIC in assay [2] (read-out: MIC>90, VRE5) is 250 µg/mL (≈ 173 µM); in assay [2] (read-out: MIC>90, VRE6), 250 µg/mL (≈ 173 µM); in assay [2] (read-out: MIC>90, VRE7), 250 µg/mL (≈ 173 µM); in assay [2] (read-out: MIC>90, VRE9) it was 250 µg/mL (≈ 173 µM); in assay [2] (read-out: MIC>90, VRE10) it was 125 µg/mL (≈ 86.3 µM); in assay [2] (read-out: MIC>90, VRE914), 125 µg/mL (≈ 86.3 µM). Besides, the MIC in assay [2] (read-out: MIC>90, VRE915) came to 250 µg/mL (≈ 173 µM); in assay [2] (read-out: average MIC>90, Average of the 11 VRE strains) it was 261 µg/mL (≈ 180 µM).
Consider Teicoplanin, for which the entries for the “average MIC>90” value in assay [1] (Average of the 13 MRSA strains) and in assay [2] (Average of the 11 VRE strains) were 104.6 µg/mL and 125 µg/mL, respectively. Further, the “MIC>90” value in assay [1] (MRSA1) was found to be 250 µg/mL; in assay [1] (MRSA2) it was 125 µg/mL; in assay [1] (MRSA3) it was 125 µg/mL; in assay [1] (MRSA4), 125 µg/mL; in assay [1] (MRSA5), 125 µg/mL; in assay [1] (MRSA6), 125 µg/mL. In addition, the “MIC>90” value in assay [1] (MRSA7) came to 250 µg/mL; in assay [1] (MRSA8) it was 62.5 µg/mL; in assay [1] (MRSA8*), 31.25 µg/mL; in assay [1] (MRSA9), 15.63 µg/mL; in assay [1] (MRSA10), 31.25 µg/mL; in assay [1] (MRSA11) it was 31.25 µg/mL. Moreover, the “MIC>90” value in assay [1] (MRSA11*) was 62.5 µg/mL; in assay [2] (VRE1), 250 µg/mL; in assay [2] (VRE2) it was 250 µg/mL; in assay [2] (VRE3), 62.5 µg/mL; in assay [2] (VRE4) it was 125 µg/mL; in assay [2] (VRE5), 125 µg/mL. Further, the “MIC>90” value in assay [2] (VRE6) came out at 125 µg/mL; in assay [2] (VRE7) it was 125 µg/mL; in assay [2] (VRE9), 62.5 µg/mL; in assay [2] (VRE10), 62.5 µg/mL; in assay [2] (VRE914), 62.5 µg/mL; in assay [2] (VRE915) it was 125 µg/mL.

The values above are taken from patent publication US20100087516A1, “ANTIBACTERIAL MACROLACTIN A THAT BACILLUS POLYFERMENTICUS KJS-2 PRODUCED IN” (priority 2007, published 2010).
